# From PubChem BioAssay (NCI)
#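 Following 48 hours of exposure in 96-well plates, responses at five concentrations were used to interpolate endpoints linearly. GI50 = concentration required for 50% inhibition of growth. TGI: concentration producing complete growth inhibition.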
# Experiments:
# Assay in all cases: NCI anticancer screen, dose series, 48 h
# HOP-62 NSCLC = system: HOP-62 NSCLC
# HT29 colon = system: HT29 colon
# M14 melanoma = system: M14 melanoma
# MDA-MB-231 breast = system: MDA-MB-231 breast
# OVCAR-8 ovarian = system: OVCAR-8 ovarian
# RPMI-8226 leukemia = system: RPMI-8226 leukemia
# SF-539 CNS = system: SF-539 CNS
# T-47D breast = system: T-47D breast
# U251 CNS = system: U251 CNS
# UACC-257 melanoma = system: UACC-257 melanoma
# DU-145 prostate = system: DU-145 prostate
compound,measurement,setting,value
N#C[C@H](c1nc2ccccc2s1)c1nc2ccccc2nc1Cl,TGI,HOP-62 NSCLC,77.1 µM
same,TGI,HT29 colon,> 100 µM
same,TGI,M14 melanoma,34.1 µM
same,TGI,MDA-MB-231 breast,> 100 µM
same,TGI,OVCAR-8 ovarian,> 100 µM
same,TGI,RPMI-8226 leukemia,> 100 µM
same,TGI,SF-539 CNS,> 100 µM
same,TGI,T-47D breast,> 100 µM
same,TGI,U251 CNS,> 100 µM
same,TGI,UACC-257 melanoma,43.3 µM
COc1ccc2oc(=O)c(-c3csc(C)n3)cc2c1,TGI,DU-145 prostate,> 100 µM
same,TGI,HOP-62 NSCLC,84 µM
same,TGI,HT29 colon,> 100 µM
same,TGI,M14 melanoma,> 100 µM
same,TGI,MDA-MB-231 breast,68 µM
same,TGI,RPMI-8226 leukemia,> 100 µM
same,TGI,SF-539 CNS,57 µM
same,TGI,U251 CNS,60.9 µM
same,TGI,UACC-257 melanoma,> 100 µM
CSc1c(C(=O)Nc2ccc(Cl)cc2)c(N)n(N)c(=O)c1C#N,TGI,DU-145 prostate,> 100 µM
same,TGI,HT29 colon,> 100 µM
same,TGI,M14 melanoma,> 100 µM
same,TGI,MDA-MB-231 breast,> 100 µM
same,TGI,OVCAR-8 ovarian,> 100 µM
same,TGI,RPMI-8226 leukemia,> 100 µM
same,TGI,SF-539 CNS,> 100 µM
same,TGI,T-47D breast,> 100 µM
same,TGI,U251 CNS,> 100 µM
same,TGI,UACC-257 melanoma,> 100 µM
O=C(OCC(Cl)(Cl)Cl)O[C@@H]1CCCC1(c1ccccc1)c1ccccc1,TGI,DU-145 prostate,> 100 µM
same,TGI,HOP-62 NSCLC,> 100 µM
same,TGI,HT29 colon,> 100 µM
same,TGI,M14 melanoma,> 100 µM
same,TGI,MDA-MB-231 breast,> 100 µM
same,TGI,T-47D breast,> 100 µM
same,TGI,U251 CNS,> 100 µM
same,TGI,UACC-257 melanoma,> 100 µM
CC1(C)CC(=O)C2=C(C1)OC1=C(CC(C)(C)CC1=O)C2c1ccccc1[N+](=O)[O-] (stereo not drawn),TGI,DU-145 prostate,> 100 µM
same,TGI,HOP-62 NSCLC,> 100 µM
same,TGI,HT29 colon,> 100 µM
same,TGI,M14 melanoma,> 100 µM
same,TGI,MDA-MB-231 breast,> 100 µM
same,TGI,RPMI-8226 leukemia,> 100 µM
same,TGI,SF-539 CNS,> 100 µM
same,TGI,T-47D breast,> 100 µM
same,TGI,U251 CNS,> 100 µM
C[C@@H]1S[C@H](c2c(Cl)cccc2Cl)N2Cc3ccccc3N=C12,TGI,DU-145 prostate,> 100 µM
same,TGI,HOP-62 NSCLC,> 100 µM
same,TGI,M14 melanoma,> 100 µM
same,TGI,MDA-MB-231 breast,> 100 µM
same,TGI,RPMI-8226 leukemia,> 100 µM
same,TGI,SF-539 CNS,> 100 µM
same,TGI,T-47D breast,> 100 µM
same,TGI,U251 CNS,> 100 µM
same,TGI,UACC-257 melanoma,> 100 µM
O=C1C(CN2CCOCC2)CCCC1CN1CCOCC1 (stereo not drawn),TGI,DU-145 prostate,31.1 µM
same,TGI,HOP-62 NSCLC,> 100 µM
same,TGI,HT29 colon,4.16 µM
same,TGI,M14 melanoma,7.1 µM
same,TGI,MDA-MB-231 breast,19.8 µM
same,TGI,OVCAR-8 ovarian,9.31 µM
same,TGI,RPMI-8226 leukemia,2.34 µM
same,TGI,SF-539 CNS,7.45 µM
same,TGI,U251 CNS,45 µM
same,TGI,UACC-257 melanoma,5.72 µM
O=C(NNc1nc(-c2ccccc2)cs1)C(F)(F)F,TGI,DU-145 prostate,> 100 µM
same,TGI,HOP-62 NSCLC,> 100 µM
same,TGI,HT29 colon,> 100 µM
same,TGI,M14 melanoma,> 100 µM
same,TGI,MDA-MB-231 breast,> 100 µM
same,TGI,OVCAR-8 ovarian,> 100 µM
same,TGI,RPMI-8226 leukemia,47 µM
same,TGI,T-47D breast,> 100 µM
same,TGI,U251 CNS,98.7 µM
same,TGI,UACC-257 melanoma,> 100 µM
CCCC(CCN)(CCN)[N+](=O)[O-],TGI,DU-145 prostate,> 100 µM
same,TGI,HT29 colon,> 100 µM
same,TGI,M14 melanoma,> 100 µM
same,TGI,MDA-MB-231 breast,> 100 µM
same,TGI,OVCAR-8 ovarian,> 100 µM
same,TGI,RPMI-8226 leukemia,> 100 µM
same,TGI,SF-539 CNS,> 100 µM
same,TGI,T-47D breast,> 100 µM
same,TGI,U251 CNS,> 100 µM
same,TGI,UACC-257 melanoma,> 100 µM
CC(=O)N1CCn2c1nc1cc(Cl)ccc12,TGI,DU-145 prostate,> 100 µM
same,TGI,HOP-62 NSCLC,40 µM
same,TGI,HT29 colon,> 100 µM
same,TGI,M14 melanoma,> 100 µM
same,TGI,MDA-MB-231 breast,> 100 µM
same,TGI,OVCAR-8 ovarian,> 100 µM
same,TGI,SF-539 CNS,> 100 µM
same,TGI,T-47D breast,51.4 µM
same,TGI,U251 CNS,> 100 µM
same,TGI,UACC-257 melanoma,> 100 µM
O=C(CCc1ccccc1)ON1C(=S)C(c2ccccc2)(c2ccccc2)N=C1Sc1ccccc1,TGI,DU-145 prostate,> 100 µM
same,TGI,HOP-62 NSCLC,> 100 µM
same,TGI,HT29 colon,> 100 µM
same,TGI,M14 melanoma,> 100 µM
same,TGI,MDA-MB-231 breast,> 100 µM
same,TGI,OVCAR-8 ovarian,> 100 µM
same,TGI,RPMI-8226 leukemia,74.6 µM
same,TGI,SF-539 CNS,> 100 µM
same,TGI,T-47D breast,> 100 µM
same,TGI,UACC-257 melanoma,> 100 µM
COc1ccc(C(OCC2OC(n3ccc(NC(=O)c4ccccc4)nc3=O)CC2OP2(=S)SCCS2)(c2ccccc2)c2ccc(OC)cc2)cc1 (stereo not drawn),TGI,DU-145 prostate,> 100 µM
same,TGI,HOP-62 NSCLC,43.9 µM
same,TGI,HT29 colon,69.7 µM
same,TGI,M14 melanoma,66.2 µM
same,TGI,MDA-MB-231 breast,> 100 µM
same,TGI,OVCAR-8 ovarian,63.2 µM
same,TGI,RPMI-8226 leukemia,> 100 µM
same,TGI,T-47D breast,> 100 µM
same,TGI,U251 CNS,86.5 µM
same,TGI,UACC-257 melanoma,> 100 µM
CC(C)C1N(C)c2ccc(Cl)cc2[C@H]2c3ccccc3CCN12 (stereo partly drawn),TGI,DU-145 prostate,> 100 µM
same,TGI,HOP-62 NSCLC,> 100 µM
same,TGI,HT29 colon,90.7 µM
same,TGI,M14 melanoma,> 100 µM
same,TGI,MDA-MB-231 breast,96.2 µM
same,TGI,OVCAR-8 ovarian,> 100 µM
same,TGI,RPMI-8226 leukemia,79.8 µM
same,TGI,SF-539 CNS,> 100 µM
same,TGI,U251 CNS,> 100 µM
same,TGI,UACC-257 melanoma,90.3 µM
CC(=O)N(O)c1ccc(-c2nc3ccccc3s2)cc1,TGI,DU-145 prostate,> 100 µM
same,TGI,HOP-62 NSCLC,> 100 µM
same,TGI,HT29 colon,> 100 µM
same,TGI,M14 melanoma,> 100 µM
same,TGI,MDA-MB-231 breast,> 100 µM
same,TGI,OVCAR-8 ovarian,> 100 µM
same,TGI,RPMI-8226 leukemia,> 100 µM
same,TGI,T-47D breast,> 100 µM
same,TGI,U251 CNS,> 100 µM
same,TGI,UACC-257 melanoma,> 100 µM
N#C/C(=C/NC(=S)c1ccncc1)C(N)=O,TGI,DU-145 prostate,> 100 µM
same,TGI,HOP-62 NSCLC,> 100 µM
same,TGI,HT29 colon,> 100 µM
same,TGI,M14 melanoma,> 100 µM
same,TGI,MDA-MB-231 breast,> 100 µM
same,TGI,OVCAR-8 ovarian,> 100 µM
same,TGI,SF-539 CNS,> 100 µM
same,TGI,T-47D breast,> 100 µM
same,TGI,U251 CNS,> 100 µM
same,TGI,UACC-257 melanoma,> 100 µM
CC1C(c2ccc(Cl)cc2)c2cc3c(cc2OC1N1CCOCC1)OCO3 (stereo not drawn),TGI,DU-145 prostate,> 100 µM
same,TGI,HOP-62 NSCLC,> 100 µM
same,TGI,HT29 colon,> 100 µM
same,TGI,M14 melanoma,> 100 µM
same,TGI,OVCAR-8 ovarian,> 100 µM
same,TGI,RPMI-8226 leukemia,> 100 µM
same,TGI,SF-539 CNS,> 100 µM
same,TGI,T-47D breast,> 100 µM
same,TGI,UACC-257 melanoma,> 100 µM
C=CCOCn1cc(C)c(=O)[nH]c1=O,TGI,DU-145 prostate,> 100 µM
same,TGI,HOP-62 NSCLC,> 100 µM
same,TGI,HT29 colon,> 100 µM
same,TGI,M14 melanoma,> 100 µM
same,TGI,MDA-MB-231 breast,> 100 µM
same,TGI,OVCAR-8 ovarian,> 100 µM
same,TGI,RPMI-8226 leukemia,> 100 µM
same,TGI,SF-539 CNS,> 100 µM
same,TGI,T-47D breast,> 100 µM
same,TGI,UACC-257 melanoma,> 100 µM
CCn1c(SCC(=O)NNC(=S)NC)nc2ccccc2c1=O,TGI,DU-145 prostate,> 100 µM
same,TGI,HOP-62 NSCLC,> 100 µM
same,TGI,M14 melanoma,> 100 µM
same,TGI,MDA-MB-231 breast,> 100 µM
same,TGI,OVCAR-8 ovarian,> 100 µM
same,TGI,RPMI-8226 leukemia,> 100 µM
same,TGI,SF-539 CNS,> 100 µM
same,TGI,T-47D breast,> 100 µM
same,TGI,U251 CNS,> 100 µM
same,TGI,UACC-257 melanoma,> 100 µM
COc1ccc2c(OCc3nnc4ccc(-c5ccccc5)nn34)ccnc2c1,GI50,DU-145 prostate,> 100 µM
same,TGI,DU-145 prostate,> 100 µM
same,GI50,HT29 colon,> 100 µM
same,TGI,HT29 colon,> 100 µM
same,GI50,M14 melanoma,> 100 µM
same,TGI,M14 melanoma,> 100 µM
same,GI50,MDA-MB-231 breast,> 20.3 µM
same,TGI,MDA-MB-231 breast,> 100 µM
same,GI50,RPMI-8226 leukemia,> 100 µM
same,TGI,RPMI-8226 leukemia,> 100 µM
same,GI50,SF-539 CNS,> 100 µM
same,TGI,SF-539 CNS,> 100 µM
same,GI50,UACC-257 melanoma,> 100 µM
same,TGI,UACC-257 melanoma,> 100 µM
CC1=NC(=Cc2ccc([N+](=O)[O-])cc2)C(=O)N1n1c(-c2ccccc2)nc2ccccc2c1=O,TGI,DU-145 prostate,> 100 µM
same,TGI,HOP-62 NSCLC,> 100 µM
same,TGI,HT29 colon,> 100 µM
same,TGI,M14 melanoma,> 100 µM
same,TGI,MDA-MB-231 breast,> 100 µM
same,TGI,OVCAR-8 ovarian,> 100 µM
same,TGI,RPMI-8226 leukemia,53.6 µM
same,TGI,SF-539 CNS,> 100 µM
same,TGI,T-47D breast,> 100 µM
same,TGI,UACC-257 melanoma,> 100 µM
COc1cc(-c2ccccc2N)c2cccnc2c1OC,TGI,DU-145 prostate,10.5 µM
same,TGI,HOP-62 NSCLC,19 µM
same,TGI,HT29 colon,16.3 µM
same,TGI,M14 melanoma,19.3 µM
same,TGI,MDA-MB-231 breast,20.6 µM
same,TGI,RPMI-8226 leukemia,14.8 µM
same,TGI,SF-539 CNS,21.6 µM
same,TGI,T-47D breast,13.7 µM
same,TGI,U251 CNS,17.7 µM
same,TGI,UACC-257 melanoma,24.8 µM
